Assay results as given in paper PMC11879280, “Antimicrobial activity of peptoids against Metallo-β-lactamase-producing Klebsiella pneumoniae, Acinetobacter baumannii, Pseudomonas aeruginosa, and other WHO priority pathogens, including Candida auris” (Journal of Applied Microbiology, 2025).
Read-outs that look alike come from different tables or passages of the source. Ends that are not written are not given here.

Experiments:
C. auris CBS12373 = experiment: Broth microdilution MIC; type: cell-based, Candida auris; settings: CBS 12 373
S. aureus 117 = settings: S. aureus 117
Method in brief: (§1)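 Bacteria were suspended at 5 × 10^5 CFU ml^−1 in CAMHB for antibiotics or MHB for peptidomimetics, then incubated at 37°C, 120 rpm for 16–20 h. Suspensions were log10 diluted and plated on Trypticase Soya Agar with phosphatidylcholine and Tween 80 for MBC.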

En. cloacae 003 = settings: En. cloacae 003
Method in brief: as §1

A. baumannii 006 = settings: A. baumannii 006
Method in brief: as §1

En. cloacae 001 = settings: En. cloacae 001
Method in brief: as §1

[1] = system: Enteroc. faecalis NCTC 13 379; settings: Enteroc. faecalis NCTC 13 379; MHB (melimine/Mel4 with 0.2% BSA, 0.01% acetic acid); mean MIC
Method in brief: as §1

P. aeruginosa AR-1270 = settings: P. aeruginosa AR-1270; MHB (melimine/Mel4 with 0.2% BSA, 0.01% acetic acid); mean MIC
Method in brief: as §1

A. baumannii 007 = settings: A. baumannii 007
Method in brief: as §1

En. cloacae 005 = settings: En. cloacae 005
Method in brief: as §1

E. coli 0011 = settings: E. coli 0011
Method in brief: as §1

A. baumannii 005 = settings: A. baumannii 005
Method in brief: as §1

P. aeruginosa 33 = settings: P. aeruginosa 33
Method in brief: as §1

E. coli 005 = settings: E. coli 005
Method in brief: as §1

S. aureus 04 = settings: S. aureus 004
Method in brief: as §1

P. aeruginosa 216 = settings: P. aeruginosa 216; MHB (melimine/Mel4 with 0.2% BSA, 0.01% acetic acid); mean MIC
Method in brief: as §1

S. aureus 38 = settings: S. aureus 38
Method in brief: as §1

S. aureus 105 = settings: S. aureus 105
Method in brief: as §1

K. pneumoniae JIE2713 = settings: K. pneumoniae JIE2713
Method in brief: as §1

K. pneumoniae JIE2709 = settings: K. pneumoniae JIE2709; MHB (melimine/Mel4 with 0.2% BSA, 0.01% acetic acid); mean MIC
Method in brief: as §1

E. coli 0015 = settings: E. coli 0015
Method in brief: as §1

A. baumannii 008 = settings: A. baumannii 008
Method in brief: as §1

A. baumannii ATCC 19 606 = settings: A. baumannii ATCC 19 606
Method in brief: as §1

K. pneumoniae JIE4212 = settings: K. pneumoniae JIE4212
Method in brief: as §1

E. coli 0010 = settings: E. coli 0010
Method in brief: as §1

[2] = RPMI 1640 with MOPS, 5 × 10^3 CFU ml^−1, ≥90% reduction (≥50% for fluconazole)
[3] = MHB (melimine/Mel4 with 0.2% BSA, 0.01% acetic acid), mean MIC

Q: KNKRKRRRRRRGGRRRR [Mel4] was tested. Which “MIC against C. auris” value (C. auris CBS12373; [2]) did it give?
A: 3.9 µg/mL

Q: What about the MIC of peptidomimetics (S. aureus 117; [3]) of the same sequence?
A: 62.5 µg/mL

Q: And the MIC of peptidomimetics (En. cloacae 003; [3])?
A: 250 µg/mL

Q: And the MIC of peptidomimetics (A. baumannii 006; [3])?
A: 62.5 µg/mL

Q: And the MIC of peptidomimetics (En. cloacae 001; [3])?
A: 250 µg/mL

Q: And the MIC of peptidomimetics [1]?
A: 500 µg/mL

Q: And the MIC of peptidomimetics (P. aeruginosa AR-1270)?
A: 500 µg/mL

Q: What about the MIC of peptidomimetics (A. baumannii 007; [3]) of the same sequence?
A: 250 µg/mL

Q: What about the MIC of peptidomimetics (En. cloacae 005; [3]) of the same sequence?
A: 250 µg/mL

Q: And the MIC of peptidomimetics (E. coli 0011; [3])?
A: 62.5 µg/mL

Q: And the MIC of peptidomimetics (A. baumannii 005; [3])?
A: 250 µg/mL

Q: And the MIC of peptidomimetics (P. aeruginosa 33; [3])?
A: 62.5 µg/mL

Q: And the MIC of peptidomimetics (E. coli 005; [3])?
A: 250 µg/mL

Q: What about the MIC of peptidomimetics (S. aureus 04; [3]) of the same sequence?
A: 62.5 µg/mL

Q: And the MIC of peptidomimetics (P. aeruginosa 216)?
A: 250 µg/mL

Q: What about the MIC of peptidomimetics (S. aureus 38; [3]) of the same sequence?
A: 62.5 µg/mL

Q: And the MIC of peptidomimetics (S. aureus 105; [3])?
A: 62.5 µg/mL

Q: What about the MIC of peptidomimetics (K. pneumoniae JIE2713; [3]) of the same sequence?
A: 250 µg/mL

Q: And the MIC of peptidomimetics (K. pneumoniae JIE2709)?
A: 62.5 µg/mL

Q: What about the MIC of peptidomimetics (E. coli 0015; [3]) of the same sequence?
A: 62.5 µg/mL

Q: And the MIC of peptidomimetics (A. baumannii 008; [3])?
A: 250 µg/mL

Q: What about the MIC of peptidomimetics (A. baumannii ATCC 19 606; [3]) of the same sequence?
A: 125 µg/mL

Q: And the MIC of peptidomimetics (K. pneumoniae JIE4212; [3])?
A: 250 µg/mL

Q: What about the MIC of peptidomimetics (E. coli 0010; [3]) of the same sequence?
A: 250 µg/mL

Q: What does the source list for “TLISWIKNKRKQRPRVSRRRRRRGGRRRR [Melimine]”?
A: MIC against C. auris (C. auris CBS12373; [2]): 3.9 µg/mL; MIC against C. auris (C. auris CBS12373; value in brackets): 1.03 µM; MIC of peptidomimetics (S. aureus 117; [3]): 31.3 µg/mL; MIC of peptidomimetics (S. aureus 117; value in brackets): 8.2 µM; MIC of peptidomimetics (En. cloacae 003; [3]): 125 µg/mL; MIC of peptidomimetics (En. cloacae 003; value in brackets): 33.0 µM; MIC of peptidomimetics (A. baumannii 006; [3]): 62.5 µg/mL; MIC of peptidomimetics (A. baumannii 006; value in brackets): 16.5 µM; MIC of peptidomimetics (En. cloacae 001; [3]): 125 µg/mL; MIC of peptidomimetics (En. cloacae 001; value in brackets): 33.0 µM; MIC of peptidomimetics [1]: 500 µg/mL; MIC of peptidomimetics (P. aeruginosa AR-1270): 500 µg/mL; MIC of peptidomimetics (A. baumannii 007; [3]): 125 µg/mL; MIC of peptidomimetics (A. baumannii 007; value in brackets): 33.0 µM; MIC of peptidomimetics (En. cloacae 005; [3]): 250 µg/mL; MIC of peptidomimetics (En. cloacae 005; value in brackets): 66.0 µM; MIC of peptidomimetics (E. coli 0011; [3]): 125 µg/mL; MIC of peptidomimetics (E. coli 0011; value in brackets): 33.0 µM; MIC of peptidomimetics (A. baumannii 005; [3]): 125 µg/mL; MIC of peptidomimetics (A. baumannii 005; value in brackets): 33.0 µM; MIC of peptidomimetics (P. aeruginosa 33; [3]): 62.5 µg/mL; MIC of peptidomimetics (P. aeruginosa 33; value in brackets): 16.5 µM; MIC of peptidomimetics (E. coli 005; [3]): 250 µg/mL; MIC of peptidomimetics (E. coli 005; value in brackets): 66.0 µM; MIC of peptidomimetics (S. aureus 04; [3]): 31.3 µg/mL; MIC of peptidomimetics (S. aureus 04; value in brackets): 8.2 µM; MIC of peptidomimetics (P. aeruginosa 216): 500 µg/mL; MIC of peptidomimetics (S. aureus 38; [3]): 31.3 µg/mL; MIC of peptidomimetics (S. aureus 38; value in brackets): 8.2 µM; MIC of peptidomimetics (S. aureus 105; [3]): 31.3 µg/mL; MIC of peptidomimetics (S. aureus 105; value in brackets): 8.2 µM; MIC of peptidomimetics (K. pneumoniae JIE2713; [3]): 125 µg/mL; MIC of peptidomimetics (K. pneumoniae JIE2713; value in brackets): 33.0 µM; MIC of peptidomimetics (K. pneumoniae JIE2709): 500 µg/mL; MIC of peptidomimetics (E. coli 0015; [3]): 125 µg/mL; MIC of peptidomimetics (E. coli 0015; value in brackets): 33.0 µM; MIC of peptidomimetics (A. baumannii 008; [3]): 250 µg/mL; MIC of peptidomimetics (A. baumannii 008; value in brackets): 66.0 µM; MIC of peptidomimetics (A. baumannii ATCC 19 606; [3]): 62.5 µg/mL; MIC of peptidomimetics (A. baumannii ATCC 19 606; value in brackets): 16.5 µM; MIC of peptidomimetics (K. pneumoniae JIE4212; [3]): 250 µg/mL; MIC of peptidomimetics (K. pneumoniae JIE4212; value in brackets): 66.0 µM; MIC of peptidomimetics (E. coli 0010; [3]): 250 µg/mL; MIC of peptidomimetics (E. coli 0010; value in brackets): 66.0 µM
